Laboratory results published in patent US20260174910A1, “POROUS EXPANDING BIOCOMPATIBLE SCAFFOLDS” (DANMARKS TEKNISKE UNIVERSITET, priority 2022, published 2026).

Assays:
[1] = Experimental: After addition of LOIB and DMSO, each ECell formulation was sonicated at 75° C. for 2 hrs and vortexed every 30th minute.
[2] = Solvent type and ECell expansion in PBS (visual inspection of images); type: physicochemical; settings: LOIB:CAB (Mn 12000):Solvent 67.5:2.5:30, 100 μL in 2 mL PBS, 37° C., 1.5 h, 2 days, 7 days pi
Experimental: These ECells were prepared to study eventual surface and expansion effects of the specific solvent type on LOIB:CAB compositions. ECell formulations were prepared in 900 mg aliquots. 12 h stability at room temperature (RT) was investigated and documented in images. Only soluble formulations of appropriate viscosity were injected as gel depots into PBS (100 μL, for visual inspection). Duplicates consisting of 100 μL ECell depots of each clear formulation were injected into 2 mL PBS buffer for inspection. Samples were kept at 37° C., and images of each injected gel depot composition were recorded at 1.5 h and 2 days and 7 days post injection (pi) to investigate and document effects of solvent type on the depots.

[3] = In vitro release of MMP / gp-130 inhibitors from expanding ECells (RHPLC); type: physicochemical; settings: 5 mg/g in LOIB:CAB(12 kDa):DMSO (65:5:30), dPBS, 37° C.
Experimental: The in vitro release profile of three inhibitor compounds were elucidated from a LOIB:CAB(12 kDa):DMSO (65:5:30) formulation. […] Loading of inhibitors were done by adding the desired concentration in mg per g of expanding ECells and stirring on a magnetic stirrer at room temperature until the solution became clear.
Each compound was loaded as 5 mg/g in the expanding ECell formulation and injected in 4 ml Dulbecco's Phosphate-buffered Saline (dPBS) as ≈100 μl, in triplicates, and incubated at 37° C. At chosen time points (see FIG. 19a), all dPBS was removed by pipetting, the expanding ECells+potentially absorbed water was weighed, and its weight noted down, 1 ml dPBS was collected for release quantification, and the remaining dPBS+fresh dPBS to a total of 4 ml (4 g) was added.
Weight data was used to generate a graph of the relative expanding ratio as a function of time (FIG. 19b), and from the 1 ml collected, RHPLC analysis was carried out. […] Solution A was an aqueous mixture of 5% v/v MeCN and 0.01% TFA.

[4] = cited from earlier work
[5] = Lipids/surfactants in ECell: solubility and expansion in PBS (images); type: physicochemical; settings: for appearance of ECell compositions containing the lipid/surfactant: 1% w/w (RGD lipids 0.1%), with and without 2.5% CAB polymer; for shape of the depot compared to reference: ECells without CAB, LOIB:GTH:DMSO:Surfactant 69:10:20:1, PBS; for shape of the depot compared to reference / ECell expansion compared to the reference: 37° C.; for ECell expansion compared to the reference: LOIB:CAB:DMSO:Surfactant 66.5:2.5:30:1, PBS, reference LOIB:CAB:DMSO 67.5:2.5:30
Experimental: Different surfactants were formulated in expandable (w CAB, Mn 12000) vs non-expandable (w GTH) ECell formulations in a concentration of 1% w/w. […] Gel formulations containing each surfactant were prepared in 600 mg aliquots.
Duplicates consisting of 100 μL gel depots of each ECell formulation were injected into 2 mL PBS buffer. Samples were incubated at 37° C., and images of a non-expandable vs an expandable ECell containing the same surfactant side-by-side were taken at 1.5 h and 2 days and 7 days post injection to investigate and document surfactant effects on ECell expansion.

[6] = In vitro release of antimicrobials from expanding ECells (RHPLC); type: physicochemical; settings: dPBS, 37° C., FIG. 18
Experimental: Each formulation was loaded with antimicrobial in varying concentrations (see Table 1) and was injected as ≈100 μl into 4 ml Dulbecco's Phosphate-buffered Saline (dPBS), in a glass vial, and incubated at 37° C. in atmospheric air, only taken out when samples were collected and new dPBS was added. Sample collection proceeded by removing all dPBS possible with a pipette, weighing the expanding ECells, then saving 1 ml for analysis, returning the rest, and adding new dPBS until 4,000 mg of water was present.
At each chosen time point, 1 ml of the release medium was collected and RHPLC analysis was carried out. […] Solution A was an aqueous mixture of 5% v/v MeCN and 0.01% TFA. […] Rifamycin splits into several peaks over time, and the total AUC of all peaks were used for quantification and standard curve generation.

Compound	expansion of the ECell by solvent, as judged by the eye [2]	appearance of ECell compositions containing the lipid/surfactant [5]	ECell expansion compared to the reference [5]	further results
Cellulose Acetate [Cellulose Acetate (Mn=30,000)]	–	–	–	solubility in LOIB:DMSO ECell [1]: insoluble
CCCCOC(C)=O [BuAc, Butyl acetate]	did not expand	–	–	–
O=S(=O)(CC1CS1)c1ccc(Oc2ccccc2)cc1 (stereo not shown) [SB-3CT]	–	–	–	cargo released in vitro after 42 days [3]: about 5%; log P [4]: 2.75
CN(C)C=O [DMF, Dimethyl formamide]	cause expansion of the ECell	–	–	–
LMT-28	–	–	–	cargo released in vitro after 42 days [3]: 10%; log P [4]: 3.71
CC(C)CCC[C@@H](C)[C@H]1CC[C@H]2[C@@H]3CC=C4C[C@@H](OC(=O)CCC(=O)O)CC[C@]4(C)[C@H]3CC[C@]12C [CHEMS, cholesteryl hemisuccinate]	–	Homogeneous	relatively similar to the reference	shape of the depot compared to reference [5]: slight flattening of the depot compared to reference
C[S+](C)[O-] [DMSO, Dimethyl sulphoxide]	cause expansion of the ECell	–	–	–
CCO [EtOH, Ethanol]	did not expand	–	–	–
1,2-Dimyristoyl-rac-glycero-3-methoxypolyethylene glycol-2000 [DMG-PEG2K]	–	Homogeneous	slightly reduced	–
CO[C@H]1/C=C/O[C@@]2(C)Oc3c(C)c(O)c4c(O)c(cc(O)c4c3C2=O)NC(=O)/C(C)=C\C=C\[C@H](C)[C@H](O)[C@@H](C)[C@@H](O)[C@@H](C)[C@H](OC(C)=O)[C@@H]1C [Rifamycin SV]	–	–	–	in vitro release rate (comparison in words) [6]: relatively slower release rate; log P [4]: 4.17
OCc1ccccc1 [BnOH, Benzyl alcohol]	did not expand	–	–	–
CNC(=O)[C@H](Cc1ccccc1)NC(=O)[C@H](CC(C)C)[C@H](CSc1cccs1)C(=O)NO [Batimastat]	–	–	–	log P [4]: 3.27

Now from value to compound, other results behind:

expansion of the ECell by solvent, as judged by the eye [2]	appearance of ECell compositions containing the lipid/surfactant [5]	ECell expansion compared to the reference [5]	Compound	further results
–	Homogeneous	slightly reduced	PEG(10)-monolaurate	–
–	–	slightly reduced	CCCCCCCC/C=C\CCCCCCCC(=O)O [Oleic acid]	–
–	Homogeneous	slightly reduced	Tween 80	shape of the depot compared to reference [5]: slight flattening of the depot compared to reference
–	Homogeneous	relatively similar to the reference	CCCCCCCCCCCC(=O)OCC(O)CO (stereo not shown) [Monolaurin]	–
–	Homogeneous	–	PEG(20)-monooleyl ether	–
did not expand	–	–	CC1COC(=O)O1 (stereo not shown) [PC, Propylene carbonate]	–
cause expansion of the ECell	–	–	CN1CCCC1=O [NMP, N-methyl pyrrolidone]	–
–	Homogeneous	relatively similar to the reference	CCCCCCCCCCCC(=O)O [Lauric acid]	–
